Target: PIK3CA (human) (UniProt P42336)
Assay: Inhibition of PIK3CA Kinase Activity

Chain of PIK3CA (human) (P42336 whole entry, looked up): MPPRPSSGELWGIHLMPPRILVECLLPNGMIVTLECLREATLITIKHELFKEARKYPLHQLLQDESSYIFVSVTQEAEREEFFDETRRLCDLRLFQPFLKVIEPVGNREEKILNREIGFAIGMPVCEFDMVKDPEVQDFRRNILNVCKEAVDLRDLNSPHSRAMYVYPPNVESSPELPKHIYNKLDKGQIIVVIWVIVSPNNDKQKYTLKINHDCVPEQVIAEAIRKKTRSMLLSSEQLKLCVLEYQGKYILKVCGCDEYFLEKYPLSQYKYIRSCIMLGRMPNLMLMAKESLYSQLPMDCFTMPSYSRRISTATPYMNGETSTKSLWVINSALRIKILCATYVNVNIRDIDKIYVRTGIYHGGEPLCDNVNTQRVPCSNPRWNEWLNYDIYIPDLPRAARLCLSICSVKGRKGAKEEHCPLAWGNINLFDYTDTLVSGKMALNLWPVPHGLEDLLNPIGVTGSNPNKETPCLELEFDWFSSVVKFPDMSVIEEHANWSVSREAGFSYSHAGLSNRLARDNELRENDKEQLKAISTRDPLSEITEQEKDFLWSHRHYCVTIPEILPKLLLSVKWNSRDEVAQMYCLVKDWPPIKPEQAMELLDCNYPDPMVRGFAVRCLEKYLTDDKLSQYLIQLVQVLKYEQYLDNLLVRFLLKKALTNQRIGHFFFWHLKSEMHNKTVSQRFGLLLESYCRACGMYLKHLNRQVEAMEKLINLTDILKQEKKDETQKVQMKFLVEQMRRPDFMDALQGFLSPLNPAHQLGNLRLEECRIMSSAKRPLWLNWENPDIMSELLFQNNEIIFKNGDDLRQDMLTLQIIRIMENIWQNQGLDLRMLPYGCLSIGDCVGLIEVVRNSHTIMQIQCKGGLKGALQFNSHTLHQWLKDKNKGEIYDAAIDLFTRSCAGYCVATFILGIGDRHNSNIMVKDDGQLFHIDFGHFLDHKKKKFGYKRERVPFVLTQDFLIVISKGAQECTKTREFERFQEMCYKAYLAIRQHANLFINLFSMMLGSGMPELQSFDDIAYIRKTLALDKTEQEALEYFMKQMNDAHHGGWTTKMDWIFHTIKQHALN

IC50 [nM]	Structure (SMILES)
3830	Cc1nc(N)nc(-n2c(NC3CCOC3)nc3ccccc32)n1 (stereo unspecified)
1370	Cc1nc(N)nc(-n2c(Nc3ccc(NC(=O)C4CCCC4)cc3)nc3ccccc32)n1
2740	Cc1nc(N)nc(-n2c(Nc3n[nH]c4cccc(F)c34)nc3ccccc32)n1
2550	Cc1nc(N)nc(-n2c(Nc3ccc(NC(=O)c4ccc(OC(F)(F)F)cc4)cc3)nc3ccccc32)n1
470	CCNC(=S)Nc1ccc(Nc2nc3ccccc3n2-c2nc(C)nc(N)n2)cc1
7260	Cc1nc(NCCO)nc(-n2c(Nc3cc[nH]n3)nc3ccccc32)n1
17200	Cc1nc(NC2CCOCC2)nc(-n2c(Nc3cc[nH]n3)nc3ccccc32)n1
14.6	Cc1nc(N)nc(-n2c(Nc3cccc4[nH]ncc34)nc3ccccc32)n1
1340	Cc1nc(N)nc(-n2c(Nc3ccc(NS(=O)(=O)c4ccc(F)cc4)cc3)nc3ccccc32)n1
4550	COCCNc1nc(C)nc(-n2c(Nc3cc[nH]n3)nc3ccccc32)n1
58.1	CNc1nc(C)nc(-n2c(Nc3cc[nH]n3)nc3ccc(-c4cncnc4)cc32)n1
31800	Cc1nc(NCCN2CCNCC2)nc(-n2c(Nc3cc[nH]n3)nc3ccccc32)n1
53.1	CNc1nc(C)nc(-n2c(Nc3ccc(NC(C)=O)cc3)nc3ccccc32)n1
4850	Cc1nc(NC2CC2)nc(-n2c(Nc3ccn[nH]3)nc3ccccc32)n1

Structure (SMILES)	IC50 [nM]
COc1ccc(-c2ccc3c(c2)nc(Nc2ccn[nH]2)n3-c2nc(C)nc(N)n2)cc1CO.COc1ccc(-c2ccc3nc(Nc4ccn[nH]4)n(-c4nc(C)nc(N)n4)c3c2)cc1CO	94.3
CNc1nc(C)nc(-n2c(Nc3cc[nH]n3)nc3cc(C4=CCNCC4)ccc32)n1.CNc1nc(C)nc(-n2c(Nc3cc[nH]n3)nc3ccc(C4=CCNCC4)cc32)n1	4240
